From patent US6964975B2, “Isoxazole and thiazole compounds and use thereof as medicine” (Kirin Beer Kabushiki Kaisha, priority 2000, dated 2005) come the findings set out here.

For one series, the system named is Human EDG-2/HepG2 cells. Nature of the series: Inhibitory activity on LPA-accelerated [3H] thymidine incorporation (cell proliferation). The note with it: 50% inhibition of LPA-induced increase of [3H] thymidine incorporation. The format is cell-based. Put shortly: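 HepG2 cells stably overexpressing human EDG-2, serum-starved 24 h, received compound immediately before LPA and were cultured 16 h, followed by 8 h [3H]thymidine labelling. LPA-stimulated proliferation was taken as incorporation in LPA wells minus LPA-free wells.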
A general note: Dividing cells build labelled thymidine or BrdU into new DNA.

The target in the next series is T1, human EDG-2 (Homo sapiens, UniProt Q92633).
T1 construct: cDNA of the cloned human EDG-2 was introduced into pEFneo, which is an animal expression vector; expressed in transfected cells; host or cells: HepG2
T1 sequence (Q92633 whole entry): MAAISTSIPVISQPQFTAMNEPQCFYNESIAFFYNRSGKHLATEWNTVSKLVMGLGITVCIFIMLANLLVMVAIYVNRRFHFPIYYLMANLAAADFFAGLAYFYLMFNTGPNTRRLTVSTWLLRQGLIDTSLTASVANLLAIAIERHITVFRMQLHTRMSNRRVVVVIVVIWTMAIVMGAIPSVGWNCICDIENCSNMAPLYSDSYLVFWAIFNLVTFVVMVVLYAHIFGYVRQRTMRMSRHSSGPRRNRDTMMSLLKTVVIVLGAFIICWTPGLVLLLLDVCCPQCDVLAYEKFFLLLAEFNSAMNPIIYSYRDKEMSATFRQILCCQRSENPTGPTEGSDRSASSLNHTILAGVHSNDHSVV
In words: Inhibitory activity on LPA-induced elevation of intracellular Ca2+ level. The note with it: 50% inhibition of elevation of intracellular Ca2+ level by LPA, human EDG-2/HepG2 cells, fura-2. Format: cell-based. Put shortly:
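Stably transfected HepG2 cells loaded with fura-2/AM (45 min, room temperature) in 0.1% BSA HEPES buffer. Test compound added before LPA, and the LPA-evoked intracellular Ca2+ rise measured fluorometrically. IC50 for inhibition derived.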

In series [1] the test system is Human brain tumor cells (U87 MG). In words: Inhibitory activity against BrdU incorporation, LPA-stimulated brain tumor cells. The format is cell-based. As to conditions: LPA 3 μM, FIG. 2A. How it is done: (§1) Human brain tumor cells (U87 MG) and ovarian carcinoma cells (SKOV3) suspended in serum-free DMEM were plated on a 96-well plate. 24 hours later, Compound 115 and LPA (3 μM) were added and the mixture was cultured for 16 hours, followed by the BrdU addition. Culture was continued for 3 hours from the addition of BrdU. Thereafter, the incorporation of BrdU into the cells was assayed based on the absorbance at 450 nm using the Cell proliferation ELISA system (RPN250, Amersham LIFE SCIENCE).

Series [2] deals with ovarian carcinoma cells (SKOV3). Nature of the series: Inhibitory activity against BrdU incorporation, LPA-stimulated ovarian carcinoma cells. The format is cell-based, human. The note with it: SKOV3, LPA 3 μM, FIG. 2B. How it is done: as §1
In series [3] the test system is lactic acid induced peripheral circulatory disturbance in rats. Nature of the series: Rat model of lactic acid induced peripheral circulatory disturbance (lesion score). The format is in vivo. The note with it: for Score of lesion: mean ± S.E. From the text:
Peripheral arterial obstructions including clinical arteriosclerosis obliterans (ASO) are, in common, chronic diseases, which often cause ulcer or necrosis in lower limbs, and lesions are worsened by arterial thrombotic infarcts upstream of the lesions. Therefore, the target of the treatment for the above diseases is to inhibit the progress and to eliminate the ischemic symptoms. Antiplatelet drugs and anticoagulants are often used therefor. […] ID3016511 (Compound 115), which is one of the compounds according to the present invention, is selected as an example and administered daily to a rat model of lactic acid induced peripheral circulatory disturbance used as an animal model of peripheral arterial obstruction to examine the drug's therapeutic effect.
13-week old Wister male rats were used in test groups of 10 rats. Each rat was fixed in a face-up position under anesthesia by 40 mg/kg of intraperitoneally administered pentobarbital sodium. The left femoral region was then incised and 0.1 ml of 5% lactic acid solution was administered into the femoral artery. Adhesives were applied dropwise at the lactic acid administered site for blood stanching. Thereafter, a penicillin G solution was added dropwise to prevent infections and the incised part was sutured. […] The solvent and the test solution were orally administered. Administration was carried out 2 hours before lactic acid administration and, thereafter, twice a day at an interval of at least 7 hours for 13 days repeatedly. […] The positive control material was administered 3 hours before the lactic acid administration, and it was repeatedly orally administered twice a day for 13 days in the same way as the above test compound. The progress of lesion on legs and feet was observed 3, 7, and 14 days after the lactic acid administration and the results were scored from 0 to 4 based on the following criteria:
1: nigrities limited to the tiptoe
2: nigrities reaching toe
Each toe was scored and the sum of scores for each toe was determined as a lesion index. When the damage reached the sole, 5 points were added.
The significant difference between the control group and the test material group was assayed by the non-parametric Dunnet's test. The significant difference between the control group and the positive control material group was assayed by the non-parametric Wilcoxon's test.

A short description of series [4]: Solubility in water (remark). The format is physicochemical. As to conditions: white powder.

Some results are limits rather than exact numbers.

A word on the IC50: it is the midpoint of a concentration-inhibition curve. A higher IC50 goes with lower potency.

On to `Cc1noc(-c2ccc(CNCCc3ccccn3)cc2)c1NC(=O)OC(C)c1ccccc1Cl` (centres unmarked) [Compound 103], for which the IC50 with Human EDG-2/HepG2 cells stood at 300 nM; against human EDG-2, 10000 nM.
As to `CCOC(=O)CSCc1ccc(-c2onc(C)c2NC(=O)OC(C)c2ccccc2Cl)cc1` (centres unmarked) [Compound 119, Ethyl 2-({4-[{4-(i [-(2-chlorophenyl)ethoxy]carbonyl}amino)-3-methyl-5-isoxazolyl]benzyl}-sulfanyl)acetate], the IC50 fell in the range of 100 to 300 nM in the series on Human EDG-2/HepG2 cells and 3000 to 10000 nM against human EDG-2.
Take `Cc1noc(-c2ccc(CSC(C)C(=O)O)cc2)c1NC(=O)OC(C)c1ccccc1Cl` (centres unmarked) [Compound 148, 2-({4-[4-({[1-(2-Chlorophenyl)ethoxy]carbonyl}amino)-3-methyl-5-isoxazolyl]benzyl}-sulfanyl)propanoic acid]: the half-inhibitory concentration (IC50) in the series with Human EDG-2/HepG2 cells was 100 to 300 nM; against human EDG-2 it was 10000 to 30000 nM.
With `CCCSCc1ccc(-c2onc(C)c2NC(=O)OC(C)c2ccccc2Cl)cc1` (centres unmarked) [Compound 117, 1-(2-Chlorophenyl)ethyl N-(3-methyl-5-{4-[(propylsulfanyl)methyl]phenyl}-4-isoxazolyl)-carbamate], the values for the IC50 with Human EDG-2/HepG2 cells and against human EDG-2 were 30 to 100 nM and 3000 to 10000 nM, respectively.
`CNC(=O)CSCc1ccc(-c2onc(C)c2NC(=O)OC(C)c2ccccc2Cl)cc1` (centres unmarked) [Compound 138]: the IC50 in the series with Human EDG-2/HepG2 cells is 100 to 300 nM; against human EDG-2, 3000 to 10000 nM.
As for `COC(=O)CS(=O)(=O)Cc1ccc(-c2onc(C)c2NC(=O)OC(C)c2ccccc2Cl)cc1` (centres unmarked) [Compound 133], the half-inhibitory concentration (IC50) with Human EDG-2/HepG2 cells was 100 to 300 nM; against human EDG-2 it was 10000 nM.
Consider `Cc1noc(-c2ccncc2)c1NC(=O)OC(C)c1ccccc1Cl` (centres unmarked) [Compound 62, 1-(2-Chlorophenyl)ethyl N-[3-methyl-5-(4-pyridyl)-4-isoxazolyl]carbamate], for which the IC50 in the series with Human EDG-2/HepG2 cells and at human EDG-2 was 3000 nM throughout.
On to `Cc1noc(-c2ccc(CSCCc3ccccc3)cc2)c1NC(=O)OC(C)c1ccccc1Cl` (centres unmarked) [Compound 124], for which the results for the half-inhibitory concentration (IC50) in the series with Human EDG-2/HepG2 cells and against human EDG-2 were 100 to 300 nM and 10000 to 30000 nM, respectively.
As for `Cc1noc(-c2ccc(CSCC(O)CO)cc2)c1NC(=O)OC(C)c1ccccc1Cl` (centres unmarked) [Compound 135], the half-maximal inhibitory concentration (IC50) in the series on Human EDG-2/HepG2 cells lay in the range of 100 to 300 nM; against human EDG-2 it was 3000 to 10000 nM.
As to `Cc1noc(-c2ccc(CSCCC(=O)O)cc2)c1NC(=O)OC(c1ccccc1)C(F)(F)F` (centres unmarked) [Compound 163, 3-{[4-(3-Methyl-4-{[(2,2,2-trifluoro-1-phenylethoxy)carbonyl]amino}-5-isoxazolyl)benzyl]-sulfanyl}propanoic acid], the half-inhibitory concentration (IC50) with Human EDG-2/HepG2 cells lay in the range of 30 to 100 nM; against human EDG-2 it was 3000 to 10000 nM.
Take `Cc1noc(-c2ccc(CNCC3CCCO3)cc2)c1NC(=O)OC(C)c1ccccc1Cl` (centres unmarked) [Compound 104, 1-(2-Chlorophenyl)ethyl N-[3-methyl-5-(4-{[(tetrahydro-2-furanylmethyl)amino]-methyl}phenyl)-4-isoxazolyl]carbamate]: the half-maximal inhibitory concentration (IC50) in the series with Human EDG-2/HepG2 cells was 3000 nM; on human EDG-2, 10000 to 30000 nM.
As for `COC(=O)CCSCc1ccc(-c2onc(C)c2NC(=O)OC(C)c2ccccc2F)cc1` (centres unmarked) [Compound 156, Methyl 3-({4-[4-({[1-(2-fluorophenyl)ethoxy]carbonyl}amino)-3-methyl-5-isoxazolyl]-benzyl}-sulfanyl)propanoate], the results for the IC50 in the series on Human EDG-2/HepG2 cells and on human EDG-2 were 300 to 1000 nM and 10000 nM, respectively.
On the same counts, the results for `CC(=O)NCCSCc1ccc(-c2onc(C)c2NC(=O)OC(C)c2ccccc2Cl)cc1` (centres unmarked) [Compound 145, 1-(2-Chlorophenyl)ethyl N-{5-[4-({[2-(acetylamino)ethyl]sulfanyl}methyl)phenyl]-3-methyl-4-isoxazolyl}carbamate] are 300 to 1000 nM and 3000 to 10000 nM.
On the same counts, the results for `Cc1noc(-c2cccc(CSCCC(=O)O)c2)c1NC(=O)OC(C)c1ccccc1Cl` (centres unmarked) [Compound 159, 3-({3-[4-({[1-(2-Chlorophenyl)ethoxy]carbonyl}amino)-3-methyl-5-isoxazolyl]benzyl}-sulfanyl)propanoic acid] are 300 nM and 3000 nM.
On the same counts, the results for `Cc1noc(-c2cccc(CSc3nc[nH]n3)c2)c1NC(=O)OC(C)c1ccccc1Cl` (centres unmarked) [Compound 143, 1-(2-Chlorophenyl)ethyl N-(3-methyl-5-{3-[(1H-1,2,4-triazol-3-ylsulfanyl)methyl]phenyl}-4-isoxazolyl)carbamate] are 100 to 300 nM and 3000 to 10000 nM.
For the molecule `CCc1noc(-c2ccc(CSCCC(=O)OC)cc2)c1NC(=O)OC(C)c1ccccc1Cl` (centres unmarked) [Compound 146], the figures for the IC50 with Human EDG-2/HepG2 cells and against human EDG-2 were 30 to 300 nM and 3000 to 10000 nM, respectively.
In the case of `CCCCSCc1ccc(-c2onc(C)c2NC(=O)OC(C)c2ccccc2Cl)cc1` (centres unmarked) [Compound 125, 1-(2-Chlorophenyl)ethyl N-(5-{4-[(butylsulfanyl)methyl]phenyl)-3-methyl-4-isoxazolyl)-carbamate], the IC50 with Human EDG-2/HepG2 cells fell in the range of 100 to 300 nM; against human EDG-2 it was 10000 to 30000 nM.
On the same counts, the results for `Cc1noc(-c2ccc(CNCc3ccccn3)cc2)c1NC(=O)OC(C)c1ccccc1Cl` (centres unmarked) [Compound 105, 1-(2-Chlorophenyl)ethyl N-[3-methyl-5-(4-{[(2-pyridylmethyl)amino]methyl}-phenyl)-4-isoxazolyl]carbamate] are 1000 nM and 10000 to 30000 nM.
On to `Cc1noc(-c2ccc(CNCc3ccco3)cc2)c1NC(=O)OC(C)c1ccccc1Cl` (centres unmarked) [Compound 106, 1-(2-Chlorophenyl)ethyl N-[5-(4-{[(2-furylmethyl)amino]methyl}phenyl)-3-methyl-4-isoxazolyl]carbamate], for which the IC50 in the series with Human EDG-2/HepG2 cells was 1000 to 3000 nM; at human EDG-2 it was 3000 to 10000 nM.
With `Cc1noc(-c2ccnc(Cl)c2)c1NC(=O)OC(C)c1ccccc1Cl` (centres unmarked) [Compound 71, 1-(2-Chlorophenyl)ethyl N-[5-(2-chloro-4-pyridyl)-3-methyl-4-isoxazolyl]carbamate], the IC50 in the series on Human EDG-2/HepG2 cells was 1000 nM; at human EDG-2 it was 3000 nM.
As to `COC(=O)CCSCc1ccc(-c2onc(C)c2NC(=O)OC(C)c2ccccc2Cl)cc1` (centres unmarked) [Compound 115, Methyl 3-({4-[4-({[1-(2-chlorophenyl)ethoxy]carbonyl}amino)-3-methyl-5-isoxazolyl]-benzyl}sulfanyl)propanoate], the IC50 in the series on Human EDG-2/HepG2 cells was 10 to 30 nM; at human EDG-2, 1000 to 3000 nM. In addition, the “Concentration at which proliferation (BrdU incorporation) was inhibited in a concentration dependent manner” value in series [1] and in series [2] was not below 0.3 µM throughout. Besides, the Score of lesion came out at 2.6 ± 0.8 in series [3] (20 mg/kg twice/day p.o., 3 days after lactic acid injection); 4.3 ± 1.0 in series [3] (20 mg/kg twice/day p.o., 7 days after lactic acid injection); 6.9 ± 1.4 in series [3] (20 mg/kg twice/day p.o., 14 days after lactic acid injection); 1.9 ± 0.5 in series [3] (60 mg/kg twice/day p.o., 7 days after lactic acid injection). Further, in series [3] (dose of 60 mg/kg), the “Progress of lesions in the feet and legs” value is on record as “inhibited the progress of lesions”. The “Progress of lesion versus control group” value in series [3] (repeated administration of 20 mg/kg for 14 days) is reported as “equivalent level of progress with the control group”. Further, the “Solubility in water” value in series [4] is listed as “poor solubility in water”.
With `CCOC(=O)CCNCc1ccc(-c2onc(C)c2NC(=O)OC(C)c2ccccc2Cl)cc1` (centres unmarked) [Compound 113, Ethyl 3-({4-[4-({[1-(2-chlorophenyl)ethoxy]carbonyl}amino)-3-methyl-5-isoxazolyl]-benzyl}amino)propanoate], the IC50 in the series with Human EDG-2/HepG2 cells was 100 to 300 nM; at human EDG-2 it was 10000 to 30000 nM.
